Experimental data taken from patent US8618152B2, “Inhibitors of serine proteases, particularly HCV NS3-NS4A proteases” (Vertex Pharmaceuticals Incorporated, priority 2003, dated 2013).
Like-named read-outs stand apart in the source and are kept apart here. *1 amine or outer side, *2 acyl side, *3 side chain or, on linkers, in order; H or OH if unused. Where a SMILES comes first, the peptide text is derived from it. [ ]: non-standard residue; d: D form. The star is where a group is joined. Pro(3S-Et) = CC[C@H]1CCN[C@@H]1C(=O)O; Pyrazinecarbonyl = O=C(c1cnccn1)*; X1 = CCCC(N[*:1])C(=O)C(=O)[*:2]; Chg = N[C@H](C(=O)O)C1CCCCC1; Tle = CC(C)(C)[C@H](N)C(=O)O

What was measured:
[1] = molecular target: HCV NS3-NS4A protease (tNS3 with KK4A) (Hepatitis C virus genotype 1a, UniProt P27958); experiment: HCV Ki assay (HPLC microbore separation of 5AB substrate and products); assay type: biochemical
HCV NS3-NS4A protease (tNS3 with KK4A), sequence (P27958 1027-1208): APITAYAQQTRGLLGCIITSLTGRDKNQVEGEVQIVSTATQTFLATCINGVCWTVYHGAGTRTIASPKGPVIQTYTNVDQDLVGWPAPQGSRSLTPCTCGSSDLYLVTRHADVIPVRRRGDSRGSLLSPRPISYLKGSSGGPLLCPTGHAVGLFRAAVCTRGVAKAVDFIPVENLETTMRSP
Experimental: HPLC Microbore Method for Separation of 5AB Substrate and Products
Substrate: NH2-Glu-Asp-Val-Val-(alpha)Abu-Cys-Ser-Met-Ser-Tyr-COOH
A stock solution of 20 mM 5AB (or concentration of your choice) was made in DMSO w/0.2M DTT. This was stored in aliquots at −20 C.
Buffer: 50 mM HEPES, pH 7.8; 20% glycerol; 100 mM NaCl
Total assay volume was 100 μL
The buffer, KK4A, DTT, and tNS3 were combined; distributed 78 μL each into wells of 96 well plate. This was incubated at 30 C for ˜5-10 min.
2.5 μL of appropriate concentration of test compound was dissolved in DMSO (DMSO only for control) and added to each well. This was incubated at room temperature for 15 min.
Initiated reaction by addition of 20 μL of 250 μM 5AB substrate (25 μM concentration is equivalent or slightly lower than the Km for 5AB).
Incubated for 20 min at 30 C.
Terminated reaction by addition of 25 μL of 10% TFA
Transferred 120 μL aliquots to HPLC vials
Separated SMSY product from substrate and KK4A by the following method:
Microbore Separation Method:
Instrumentation: Agilent 1100
Column thermostated chamber G1316A
Diode array detector G1315A
Solvent A=HPLC grade water+0.1% TFA
Solvent B=HPLC grade acetonitrile+0.1% TFA
Stop time: 17 min Post-run time: 10 min.

[2] = system: Cells containing hepatitis C virus (HCV) replicon; experiment: HCV replicon cell assay; assay type: cell-based
Experimental: HCV Replicon Cell Assay Protocol
Cells containing hepatitis C virus (HCV) replicon were maintained in DMEM containing 10% fetal bovine serum (FBS), 0.25 mg per ml of G418, with appropriate supplements (media A).
On day 1, replicon cell monolayer was treated with a trypsin:EDTA mixture, removed, and then media A was diluted into a final concentration of 100,000 cells per ml with. 10,000 cells in 100 ul were plated into each well of a 96-well tissue culture plate, and cultured overnight in a tissue culture incubator at 37° C.
On day 2, compounds (in 100% DMSO) were serially diluted into DMEM containing 2% FBS, 0.5% DMSO, with appropriate supplements (media B). The final concentration of DMSO was maintained at 0.5% throughout the dilution series.
Media on the replicon cell monolayer was removed, and then media B containing various concentrations of compounds was added. Media B without any compound was added to other wells as no compound controls.
Cells were incubated with compound or 0.5% DMSO in media B for 48 hours in a tissue culture incubator at 37° C. At the end of the 48-hour incubation, the media was removed, and the replicon cell monolayer was washed once with PBS and stored at −80° C. prior to RNA extraction.
Culture plates with treated replicon cell monolayers were thawed, and a fixed amount of another RNA virus, such as Bovine Viral Diarrhea Virus (BVDV) was added to cells in each well. RNA extraction reagents (such as reagents from RNeasy kits) were added to the cells immediately to avoid degradation of RNA. Total RNA was extracted according the instruction of manufacturer with modification to improve extraction efficiency and consistency. Finally, total cellular RNA, including HCV replicon RNA, was eluted and stored at −80° C. until further processing.
A Taqman real-time RT-PCR quantification assay was set up with two sets of specific primers and probe. One was for HCV and the other was for BVDV. Total RNA extractants from treated HCV replicon cells was added to the PCR reactions for quantification of both HCV and BVDV RNA in the same PCR well. Experimental failure was flagged and rejected based on the level of BVDV RNA in each well. The level of HCV RNA in each well was calculated according to a standard curve run in the same PCR plate. The percentage of inhibition or decrease of HCV RNA level due to compound treatment was calculated using the DMSO or no compound control as 0% of inhibition. The IC50 (concentration at which 50% inhibition of HCV RNA level is observed) was calculated from the titration curve of any given compound.

[3] = 50% inhibition of HCV RNA level, 48-hour incubation, Taqman real-time RT-PCR, read-out: IC50
[4] = 25 nM tNS3, 25 μM KK4A, 25 μM 5AB substrate, 20 min at 30 C, read-out: Ki

Row | SMILES | Ki [1] [nM] | IC50 [2, 3] [nM] | Ki [1, 4] [nM] | IC50 ([2]; 48 h) [nM]
1 | CCCC(NC(=O)[C@@H]1[C@@H](C2CCCCC2)CCN1C(=O)[C@@H](NC(=O)[C@@H](NC(=O)C1CSC(=O)N1)C1CCCCC1)C(C)(C)C)C(=O)C(=O)N[C@@H](C)c1ccccc1 (stereo partly shown) [Compound 63] | < 100 | 500 to 1000 | – | –
2 | CCC[C@H](NC(=O)[C@@H]1[C@@H](C2CCCCC2)CCN1C(=O)[C@@H](NC(=O)[C@@H](NC(=O)c1cnccn1)C1CCCCC1)C(C)(C)C)C(=O)C(=O)N[C@@H](C)C1CCCCC1 [Compound 67] | – | > 1000 | > 500 | –
3 | CCCC(NC(=O)[C@@H]1[C@@H](CC)CCN1C(=O)[C@@H](NC(=O)[C@@H](NC(=O)c1cnccn1)C1CCCCC1)C(C)(C)C)C(=O)C(=O)N[C@@H](C)c1ccccc1 (stereo partly shown) [Compound 44] | – | 500 to 1000 | 100 to 500 | –
4 | CCC[C@H](NC(=O)[C@@H]1[C@@H](Cc2ccccc2)CCN1C(=O)[C@@H](NC(=O)[C@@H](NC(=O)c1cnccn1)C1CCCCC1)C(C)(C)C)C(=O)C(=O)NC1CC1 [Compound 77] | – | > 1000 | 100 to 500 | –
5 | CCCC(NC(=O)[C@@H]1[C@@H](CC)CCN1C(=O)[C@@H](NC(=O)[C@@H](NC(=O)c1cnccn1)C1CCCCC1)C(C)(C)C)C(=O)C(=O)NC1CC1 (stereo partly shown) [Compound 39] | – | 500 to 1000 | < 100 | –
6 | CCCC(NC(=O)[C@@H]1[C@@H](CC)CCN1C(=O)[C@@H](NC(=O)[C@@H](NC(=O)c1cnccn1)C1CCCCC1)C(C)(C)C)C(=O)C(=O)N[C@@H](Cc1ccccc1)C(=O)O (stereo partly drawn) [Compound 41] (Pyrazinecarbonyl-[Chg][Tle][Pro(3S-Et)][X1]F-OH) | – | – | > 500 | < 500
7 | CCC[C@H](NC(=O)[C@@H]1[C@@H](C2CCCCC2)CCN1C(=O)[C@@H](NC(=O)[C@@H](NC(=O)c1cnccn1)C1CCCCC1)C(C)(C)C)C(=O)C(=O)NC1CC1 [Compound 66] | – | 500 to 1000 | 100 to 500 | –
8 | CCC[C@H](NC(=O)[C@@H]1[C@@H](C2CCCC2)CCN1C(=O)[C@@H](NC(=O)[C@@H](NC(=O)c1cnccn1)C1CCCCC1)C(C)(C)C)C(=O)C(=O)NC1CC1 [Compound 75] | – | > 1000 | 100 to 500 | –
9 | CCC[C@H](NC(=O)[C@@H]1[C@@H](CC)[C@@H](C)CN1C(=O)[C@@H](NC(=O)[C@@H](NC(=O)c1cnccn1)C1CCCCC1)C(C)(C)C)C(=O)C(=O)NC1CC1 [Compound 76] | – | > 1000 | 100 to 500 | –
10 | CCCC(NC(=O)[C@@H]1[C@@H](C2CCCCC2)CCN1C(=O)[C@@H](NC(=O)[C@@H](NC(=O)c1cnccn1)C1CCCCC1)C(C)C)C(=O)C(=O)NC1CC1 (stereo partly shown) [Compound 54] | – | – | 100 to 500 | > 1000
11 | CC[C@H]1CCN(C(=O)[C@@H](NC(=O)[C@@H](NC(=O)c2cnccn2)C2CCCCC2)C(C)(C)C)[C@@H]1C(=O)NC(CC(F)F)C(=O)C(=O)NC1CC1 (stereo partly shown) [Compound 52] | – | < 500 | < 100 | –
12 | CCC[C@H](NC(=O)[C@@H]1[C@@H](C(CC)CC)CCN1C(=O)[C@@H](NC(=O)[C@@H](NC(=O)c1cnccn1)C1CCCCC1)C(C)(C)C)C(=O)C(=O)NC1CC1 [Compound 74] | – | > 1000 | 100 to 500 | –
13 | CCC[C@H](NC(=O)[C@@H]1[C@@H](C(C)C)CCN1C(=O)[C@@H](NC(=O)[C@@H](NC(=O)c1cnccn1)C1CCCCC1)C(C)C)C(=O)C(=O)NC1CC1 [Compound 64] | – | – | 100 to 500 | > 1000
14 | CCC[C@H](NC(=O)[C@@H]1[C@@H](C(C)C)CCN1C(=O)[C@@H](NC(=O)[C@@H](NC(=O)c1ncc[nH]1)C1CCCCC1)C(C)(C)C)C(=O)C(=O)NC1CC1 [Compound 69] | – | < 500 | < 100 | –
15 | CCCC(NC(=O)[C@@H]1[C@@H](C2CCCCC2)CCN1C(=O)[C@@H](NC(=O)[C@@H](NC(=O)c1cnccn1)C1CCCCC1)C(C)(C)C)C(=O)C(=O)NC1CC1 (stereo partly shown) [Compound 55] | – | 500 to 1000 | < 100 | –
16 | CCCC(NC(=O)[C@@H]1[C@@H](C2CCCCC2)CCN1C(=O)[C@@H](NC(=O)[C@@H](NC(=O)c1cnccn1)C1CCCCC1)C(C)(C)C)C(=O)C(=O)N[C@@H](C)c1ccccc1 (stereo partly shown) [Compound 62] | – | 500 to 1000 | < 100 | –
17 | CCC[C@H](NC(=O)[C@@H]1[C@@H](C2CCCCC2)CCN1C(=O)[C@@H](NC(=O)[C@@H](NC(=O)c1ncc[nH]1)C1CCCCC1)C(C)(C)C)C(=O)C(=O)NC1CC1 [Compound 68] | – | < 500 | < 100 | –
